Assay results reported in patent US7763615B2, “Ecteinascidin analogs for use as antitumour agents” (priority 2001, dated 2010).

Key:
Experiment in all cases: cells
Type in all cases: cell-based
[1] = system: LOVO; details: Homo sapiens, 48 hours exposure, SRB; for GI50 / IC (TGI): LoVo, 48 h; for CC50: LOVO, read-out: LC50 (the source's name)
Method in brief: (§1)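 Readout: SRB OD490, triplicate wells. Setup: 5×10^3 cells/well, RPMI 1640 + 10% FBS, 37° C, 5% CO2; 18 h pre-attachment; 48 h sample exposure, 10 to 10^−8 μg/ml. Outputs GI, TGI (cytostatic), LC (cytotoxic).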

[2] = system: HELA; details: HELA, 48 hours exposure, SRB; for GI50 / CC50: Homo sapiens; for CC50: read-out: LC50 (the source's name)
Method in brief: as §1

[3] = system: LOVO-DOX; details: Homo sapiens, LOVO-DOX, 48 hours exposure, SRB; for GI50 / IC (TGI): 48 h; for CC50: read-out: LC50 (the source's name)
Method in brief: as §1

[4] = system: LNCAP; details: Homo sapiens, 48 hours exposure, SRB; for GI50 / IC (TGI): LNCaP, 48 h; for CC50: LNCAP, read-out: LC50 (the source's name)
Method in brief: as §1

[5] = system: DU145; details: Homo sapiens, DU145, 48 hours exposure, SRB; for GI50 / IC (TGI): DU-145, 48 h; for CC50: DU-145, read-out: LC50 (the source's name)
Method in brief: as §1

[6] = system: IGROV-ET; details: Homo sapiens, IGROV-ET, 48 hours exposure, SRB; for GI50 / IC (TGI): 48 h; for CC50: read-out: LC50 (the source's name)
Method in brief: as §1

[7] = system: MEL-28; details: Homo sapiens, MEL-28, 48 hours exposure, SRB; for GI50 / IC (TGI): SK-MEL-28, 48 h; for CC50: SK-MEL-28, read-out: LC50 (the source's name)
Method in brief: as §1

[8] = system: SK-BR3; details: Homo sapiens, SK-BR3, 48 hours exposure, SRB; for GI50 / IC (TGI): SK-BR-3, 48 h; for CC50: SK-BR-3, read-out: LC50 (the source's name)
Method in brief: as §1

[9] = system: HELA-APL; details: for TGI / CC50: HELA-APL, 48 hours exposure, SRB; for GI50 / CC50: Homo sapiens; for GI50: 48 h; for CC50: read-out: LC50 (the source's name)
Method in brief: as §1

[10] = system: PANC-1; details: Homo sapiens, PANC-1, 48 hours exposure, SRB; for GI50 / IC (TGI): PANC-1, 48 h; for CC50: read-out: LC50 (the source's name)
Method in brief: as §1

[11] = system: K562; details: Homo sapiens, K562, 48 hours exposure, SRB; for GI50 / IC (TGI): K562, 48 h; for CC50: read-out: LC50 (the source's name)
Method in brief: as §1

[12] = system: A549; details: Homo sapiens, A549, 48 h, A549, 48 hours exposure, SRB; for GI50: read-out: GI50; for CC50: read-out: LC50 (the source's name); for IC (TGI): read-out: TGI
Method in brief: as §1

[13] = system: IGROV; details: Homo sapiens, 48 hours exposure, SRB; for GI50 / IC (TGI): 48 h; for CC50: read-out: LC50 (the source's name)
Method in brief: as §1

[14] = system: HT29; details: Homo sapiens, HT-29, 48 h, HT29, 48 hours exposure, SRB; for CC50: read-out: LC50 (the source's name)
Method in brief: as §1

Work on COc1c(C)cc2c(c1O)[C@@H]1C3[C@@H]4SC[C@]5(NCCc6c5[nH]c5ccccc65)C(=O)COC[C@@H](c5c6c(c(C)c(OC(=O)OC(C)(C)C)c54)OCO6)N3[C@@H](C#N)[C@H](C2)N1C (stereo partly drawn) [Compound 57] yielded a GI50 [1] of 73 nM, an IC (TGI) [1] of 257 nM and a CC50 [1] of 905 nM. The TGI [2] was 1.46E−07 Molar, the GI50 [2] was 43.7 nM and the CC50 [2] was 652 nM. It also gave a GI50 [3] of 487 nM, an IC (TGI) [3] of 6700 nM and a CC50 [3] of 12200 nM. The GI50 [4] was 33.3 nM, the IC (TGI) [4] was 71.7 nM and the CC50 [4] was 23.2 nM. For the same compound, the GI50 [5] was 47.7 nM, the IC (TGI) [5] was 1840 nM and the CC50 [5] was 12200 nM. For the same compound, the GI50 [6] was 394 nM, the IC (TGI) [6] was 1150 nM and the CC50 [6] was 12200 nM. The GI50 [7] was 64.7 nM, the IC (TGI) [7] was 209 nM and the CC50 [7] was 662 nM. It also gave a GI50 [8] of 67.6 nM, an IC (TGI) [8] of 313 nM and a CC50 [8] of 7990 nM. For the same compound, the TGI [9] was 2.03E−07 Molar, the GI50 [9] was 61.4 nM and the CC50 [9] was 850 nM. The GI50 [10] was 113 nM, the IC (TGI) [10] was 662 nM and the CC50 [10] was 12200 nM. It also gave a GI50 [11] of 47.7 nM, an IC (TGI) [11] of 466 nM and a CC50 [11] of 12200 nM. The GI50 [12] was 103 nM, the CC50 [12] was 12200 nM and the IC (TGI) [12] was 607 nM. For the same compound, the GI50 [13] was 71.8 nM, the IC (TGI) [13] was 460 nM and the CC50 [13] was 7430 nM. For the same compound, the GI50 [14] was 165 nM, the IC (TGI) [14] was 1410 nM and the CC50 [14] was 12200 nM.
Compound C=COC(=O)Oc1c(C)c2c(c3c1[C@H]1SC[C@]4(NCCC5c6ccccc6NC54)C(=O)OC[C@@H]3N3C1[C@H]1c4c(cc(C)c(OC)c4OC(=O)OC=C)C[C@@H]([C@@H]3C#N)N1C)OCO2 (stereo partly drawn) [Compound 68] has a GI50 [1] of 27.1 nM, an IC (TGI) [1] of 49.7 nM and a CC50 [1] of 91.3 nM. The TGI [2] was 6.03E−08 Molar, the GI50 [2] was 32.5 nM and the CC50 [2] was 112 nM. For the same compound, the GI50 [3] was 112 nM, the IC (TGI) [3] was 743 nM and the CC50 [3] was 11700 nM. It also gave a GI50 [4] of 11.5 nM, an IC (TGI) [4] of 26.6 nM and a CC50 [4] of 61.3 nM. The GI50 [5] was 29.9 nM, the IC (TGI) [5] was 86.5 nM and the CC50 [5] was 10300 nM. For the same compound, the GI50 [6] was 30.8 nM, the IC (TGI) [6] was 68.9 nM and the CC50 [6] was 206 nM. It also gave a GI50 [7] of 7.52 nM, an IC (TGI) [7] of 22.4 nM and a CC50 [7] of 67.2 nM. For the same compound, the GI50 [8] was 29 nM, the IC (TGI) [8] was 60.9 nM and the CC50 [8] was 206 nM. It also gave a TGI [9] of 6.19E−08 Molar, a GI50 [9] of 37 nM and a CC50 [9] of 103 nM. It also gave a GI50 [10] of 48.1 nM, an IC (TGI) [10] of 125 nM and a CC50 [10] of 11700 nM. It also gave a GI50 [11] of 20.4 nM, an IC (TGI) [11] of 44.7 nM and a CC50 [11] of 97.5 nM. For the same compound, the GI50 [12] was 28.3 nM, the CC50 [12] was 101 nM and the IC (TGI) [12] was 49.5 nM. The GI50 [13] was 21.7 nM, the IC (TGI) [13] was 61.6 nM and the CC50 [13] was 1090 nM. For the same compound, the GI50 [14] was 317 nM, the IC (TGI) [14] was 95.9 nM and the CC50 [14] was 11700 nM.
